The text below walks through data of patent US20210078988A1, “MODULATORS OF INDOLEAMINE 2,3-DIOXYGENASE” (GLAXOSMITHKLINE INTELLECTUAL PROPERTY DEVELOPMENT LIMITED, priority 2017, published 2021).

The test concerns the target T1, indoleamine 2, 3-dioxygenase (IDO1) (Homo sapiens, UniProt P14902).
T1 construct: human peripheral blood mononuclear cells (PBMC) (PB003F; host or cells: human PBMC stimulated with IFN-gamma and LPS
Description: PBMC IDO1 assay (kynurenine detection via mass spectrometry). The format is cell-based. As to conditions: human PBMC stimulated with IFN-γ and LPS, 2 days, kynurenine by mass spectrometry; read-out: IDO1 PBMC pIC50 (converted). Summed up: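 Kynurenine output, read by RapidFire mass spectrometry as a ratio to internal standard, reflected IDO1 activity in human PBMCs induced with 100 ng/ml IFN-γ plus 50 ng/ml LPS and dosed with compound (11 points, 3-fold) over 2 days. Cytotoxicity was tracked by CellTiter-Glo; XC50 values came from Hill-slope fits.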

T1 sequence (P14902 whole entry): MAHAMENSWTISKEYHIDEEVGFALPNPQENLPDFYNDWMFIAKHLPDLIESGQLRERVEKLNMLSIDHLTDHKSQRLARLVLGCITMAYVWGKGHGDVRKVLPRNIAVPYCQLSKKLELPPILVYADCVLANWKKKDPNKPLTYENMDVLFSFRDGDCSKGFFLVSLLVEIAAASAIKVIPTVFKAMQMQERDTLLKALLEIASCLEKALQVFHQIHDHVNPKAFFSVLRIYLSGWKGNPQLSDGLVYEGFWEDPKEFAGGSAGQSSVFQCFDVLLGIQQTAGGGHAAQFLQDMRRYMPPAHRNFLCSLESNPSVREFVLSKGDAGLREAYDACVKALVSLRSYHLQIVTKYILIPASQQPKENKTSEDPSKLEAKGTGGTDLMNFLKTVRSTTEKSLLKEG

As for `CC(C)(C)OC(=O)N1CCC(CC(NC(=O)c2ccc(Br)cc2)C2CCCCC2)CC1` (centres unmarked) [Example 91, tert-butyl 4-(2-(4-bromobenzamido)-2-cyclohexylethyl)piperidine-1-carboxylate], the IC50 was 20 nM. The figure for `CC(C)CC(=O)N1CCC(CC(NC(=O)c2ccc(Cl)cc2)c2ccccc2)CC1` (centres unmarked) [Example 163, 4-chloro-N-(2-(1-(3-methylbutanoyl)piperidin-4-yl)-1-phenylethyl)benzamide] is 100 nM. Regarding `COc1ccc([C@H](CC2CCN(C(=O)OC(C)(C)C)CC2)NC(=O)c2ccc(Cl)cc2)cn1` [Example 19, tert-butyl (S)-4-(2-(4-chlorobenzamido)-2-(6-methoxypyridin-3-yl)ethyl)piperidine-1-carboxylate], the IC50 was 3.98 nM. As for `CCOC(=O)N1CCC(CC(NC(=O)c2ccc(F)cc2)c2ccccc2)CC1` (centres unmarked) [Example 120, ethyl 4-(2-(4-fluorobenzamido)-2-phenylethyl)piperidine-1-carboxylate], the IC50 is 39.8 nM.

Regarding `O=C(NC(CC1CCN(C(=O)OC2CCOCC2)CC1)c1ccccc1)c1ccc(Cl)cc1` (centres unmarked) [Example 186, tetrahydro-2H-pyran-4-yl 4-(2-(4-chlorobenzamido)-2-phenylethyl)piperidine-1-carboxylate], the IC50 is 158 nM. For `O=C(NC(CC1CCN(C(=O)N2CCCCC2)CC1)c1ccccc1)c1ccc(Cl)cc1` (centres unmarked) [Example 230, 4-chloro-N-(1-phenyl-2-(1-(piperidine-1-carbonyl)piperidin-4-yl)ethyl)benzamide] the value was 631 nM; for `CC(C)CC(CC1CCN(C(=O)OC(C)(C)C)CC1)NC(=O)c1ccc(Cl)cc1` (centres unmarked) [Example 75, tert-butyl 4-(2-(4-chlorobenzamido)-4-methylpentyl)piperidine-1-carboxylate], 15.8 nM. Consider `CCN(CC)c1nnc(C(CC2CCN(C(=O)Oc3ccccc3)CC2)NC(=O)c2ccc(Cl)s2)o1` (centres unmarked) [Example 53, phenyl 4-(2-(5-chlorothiophene-2-carboxamido)-2-(5-(diethylamino)-1,3,4-oxadiazol-2-yl)ethyl)piperidine-1-carboxylate], for which the IC50 was 3.16 nM. Take `CN(Cc1ccccc1)c1nnc(C(CC2CCN(C(=O)OC(C)(C)C)CC2)NC(=O)c2ccc(Cl)s2)o1` (centres unmarked) [Example 140, tert-butyl 4-(2-(5-(benzyl(methyl)amino)-1,3,4-oxadiazol-2-yl)-2-(5-chlorothiophene-2-carboxamido)ethyl)piperidine-1-carboxylate]: the IC50 was 63.1 nM. For `CSc1ccc(C(=O)NC(CC2CCN(C(=O)OC(C)(C)C)CC2)c2ccccc2)cc1` (centres unmarked) [Example 178, tert-butyl 4-(2-(4-(methylthio)benzamido)-2-phenylethyl)piperidine-1-carboxylate], the IC50 is 126 nM. The figure for `CC(C)(C)OC(=O)N1CCC(C[C@H](NC(=O)c2ccc(Cl)s2)C2CC2)CC1` [Example 8, (S)-tert-butyl 4-(2-(5-chlorothiophene-2-carboxamido)-2-cyclopropylethyl)piperidine-1-carboxylate] is 6.31 nM; for `CC(C)(C)OC(=O)N1CCC(CC(NC(=O)c2ccc(F)cc2)c2nc(C3CCCC3)no2)CC1` (centres unmarked) [Example 198, tert-butyl 4-(2-(3-cyclopentyl-1,2,4-oxadiazol-5-yl)-2-(4-fluorobenzamido)ethyl)piperidine-1-carboxylate] it is 251 nM; for `CC1CCC(C(=O)NC(CC2CCN(C(=O)OC(C)(C)C)CC2)c2ccccc2)CC1` (centres unmarked) [Example 233, tert-butyl 4-(2-(4-methylcyclohexanecarboxamido)-2-phenylethyl)piperidine-1-carboxylate] it is 794 nM. Take `COc1ccc(C(=O)NC(CC2CCN(C(=O)OC(C)(C)C)CC2)c2ccccc2)cn1` (centres unmarked) [Example 157, tert-butyl 4-(2-(6-methoxynicotinamido)-2-phenylethyl)piperidine-1-carboxylate]: the IC50 was 100 nM. As to `COCCNCC(CC1CCN(C(=O)OC(C)(C)C)CC1)NC(=O)c1ccc(F)cc1` (centres unmarked) [Example 235, tert-butyl 4-(2-(4-fluorobenzamido)-3-((2-methoxyethyl)amino)propyl)piperidine-1-carboxylate], the IC50 was 794 nM. For `CC(C)(C)OC(=O)N1CCC(CC(NC(=O)c2ccc(F)c(Cl)c2)c2ccccc2)CC1` (centres unmarked) [Example 203, tert-butyl 4-(2-(3-chloro-4-fluorobenzamido)-2-phenylethyl)piperidine-1-carboxylate] the value was 316 nM; for `CCOC(=O)N1CCC(C[C@H](NC(=O)c2ccc(Cl)s2)C2CC2)CC1` [Example 12, ethyl (S)-4-(2-(5-chlorothiophene-2-carboxamido)-2-cyclopropylethyl)piperidine-1-carboxylate], 3.16 nM. For the compound `CC(C)(C)OC(=O)N1CCC(CC(NC(=O)c2ccc(Cl)cc2)C2CCCC2)CC1` (centres unmarked) [Example 151, tert-butyl 4-(2-(4-chlorobenzamido)-2-cyclopentylethyl)piperidine-1-carboxylate], the IC50 is 79.4 nM.

Regarding `CC(C)(C)OC(=O)N1CCC(CC(NC(=O)Nc2ccc(F)cc2)c2ccccc2)CC1` (centres unmarked) [Example 200, tert-butyl 4-(2-(3-(4-fluorophenyl)ureido)-2-phenylethyl)piperidine-1-carboxylate], the IC50 is 316 nM. For `CCOC(=O)N1CCC(CC(NC(=O)c2ccc(OC)nc2)C2CC2)CC1` (centres unmarked) [Example 158, ethyl 4-(2-cyclopropyl-2-(6-methoxynicotinamido)ethyl)piperidine-1-carboxylate] the value was 100 nM. The figure for `COc1ccc(C(CC2CCN(C(=O)OCC(C)C)CC2)NC(=O)c2ccc(F)cc2)cn1` (centres unmarked) [Example 56, isobutyl 4-(2-(4-fluorobenzamido)-2-(6-methoxypyridin-3-yl)ethyl)piperidine-1-carboxylate] is 12.6 nM. The figure for `COC(=O)N1CCC(CC(NC(=O)c2ccc(Cl)cc2)c2ccccc2)CC1` (centres unmarked) [Example 134, methyl 4-(2-(4-chlorobenzamido)-2-phenylethyl)piperidine-1-carboxylate] is 50.1 nM. Consider `CCNc1nnc(C(CC2CCN(C(=O)OC(C)(C)C)CC2)NC(=O)c2ccc(Cl)s2)o1` (centres unmarked) [Example 127, tert-butyl 4-(2-(5-chlorothiophene-2-carboxamido)-2-(5-(ethylamino)-1,3,4-oxadiazol-2-yl)ethyl)piperidine-1-carboxylate], for which the IC50 is 39.8 nM. For `CC(C)(C)OC(=O)N1CCC(CC(NC(=O)c2cc3ccccc3s2)c2ccccc2)CC1` (centres unmarked) [Example 182, tert-butyl 4-(2-(benzo[b]thiophene-2-carboxamido)-2-phenylethyl)piperidine-1-carboxylate] the value was 158 nM; for `CC(C)(C)OC(=O)N1CCC(CC(NC(=O)c2ccc(C3CC3)s2)c2ccccc2)CC1` (centres unmarked) [Example 98, tert-butyl 4-(2-(5-cyclopropylthiophene-2-carboxamido)-2-phenylethyl)piperidine-1-carboxylate], 25.1 nM; for `CCCCN(CC)c1nnc(C(CC2CCN(C(=O)OC(C)(C)C)CC2)NC(=O)c2ccc(C)s2)o1` (centres unmarked) [Example 96, tert-butyl 4-(2-(5-(butyl(ethyl)amino)-1,3,4-oxadiazol-2-yl)-2-(5-methylthiophene-2-carboxamido)ethyl)piperidine-1-carboxylate], 20 nM. For `CC(C)(C)OC(=O)N1CCC(CC(NC(=O)c2ccc(F)cc2)c2nnc(C3CC3)o2)CC1` (centres unmarked) [Example 221, tert-butyl 4-(2-(5-cyclopropyl-1,3,4-oxadiazol-2-yl)-2-(4-fluorobenzamido)ethyl)piperidine-1-carboxylate] the value was 501 nM; for `CC(C)(C)OC(=O)N1CCC(C[C@H](NC(=O)c2ccc(Cl)cc2)C2CC2)CC1` [Example 90, (S)-tert-butyl 4-(2-(4-chlorobenzamido)-2-cyclopropylethyl)piperidine-1-carboxylate], 20 nM.

In the case of `CC(C)(C)OC(=O)N1CCC(CC(NC(=O)c2ccc(C(F)(F)F)cc2)c2ccccc2)CC1` (centres unmarked) [Example 110, tert-butyl 4-(2-phenyl-2-(4-(trifluoromethyl)benzamido)ethyl)piperidine-1-carboxylate], the IC50 is 31.6 nM. The figure for `CCOC(=O)N1CCC(CC(NC(=O)c2ccc(F)cc2)C2CC2)CC1` (centres unmarked) [Example 108, ethyl 4-(2-cyclopropyl-2-(4-fluorobenzamido)ethyl)piperidine-1-carboxylate] is 31.6 nM; for `CC(C)(C)OC(=O)N1CCC(CC(NC(=O)c2ccccc2F)c2ccccc2)CC1` (centres unmarked) [Example 219, tert-butyl 4-(2-(2-fluorobenzamido)-2-phenylethyl)piperidine-1-carboxylate] it is 501 nM; for `CC(C)(C)OC(=O)N1CCC(CC(NC(=O)c2cc(F)ccc2F)c2ccccc2)CC1` (centres unmarked) [Example 211, tert-butyl 4-(2-(2,5-difluorobenzamido)-2-phenylethyl)piperidine-1-carboxylate] it is 398 nM. For `CC(C)C(CC1CCN(C(=O)OC(C)(C)C)CC1)NC(=O)c1ccc(Cl)s1` (centres unmarked) [Example 99, tert-butyl 4-(2-(5-chlorothiophene-2-carboxamido)-3-methylbutyl)piperidine-1-carboxylate] the value was 25.1 nM. For `CC(C)(C)OC(=O)N1CCC(C[C@H](NC(=O)c2ccc(Br)cc2)C2CC2)CC1` [Example 63, (S)-tert-butyl 4-(2-(4-bromobenzamido)-2-cyclopropylethyl)piperidine-1-carboxylate] the value was 12.6 nM.

For `C#CCOc1ccc(C(=O)NC(CC2CCN(C(=O)OC(C)(C)C)CC2)c2ccccc2)cc1` (centres unmarked) [Example 86, tert-butyl 4-(2-phenyl-2-(4-(prop-2-yn-1-yloxy)benzamido)ethyl)piperidine-1-carboxylate], the IC50 was 20 nM.
